Patent US20150157575A1, “Pharmaceutical Formulations Comprising Vilazodone” (Forest Laboratories Holdings Ltd., priority 2013, published 2015)
Where two headings read alike, the source gives them in different places.

Assays:
[1] = target: dopamine reuptake site (Homo sapiens, UniProt Q01959); settings: cited from earlier work
[2] = target: CYP3A4 (Homo sapiens, UniProt P08684); settings: in vitro studies; cited from earlier work
[3] = target: norepinephrine reuptake site (Homo sapiens, UniProt P23975); settings: cited from earlier work
Chain of norepinephrine reuptake site (P23975 whole entry): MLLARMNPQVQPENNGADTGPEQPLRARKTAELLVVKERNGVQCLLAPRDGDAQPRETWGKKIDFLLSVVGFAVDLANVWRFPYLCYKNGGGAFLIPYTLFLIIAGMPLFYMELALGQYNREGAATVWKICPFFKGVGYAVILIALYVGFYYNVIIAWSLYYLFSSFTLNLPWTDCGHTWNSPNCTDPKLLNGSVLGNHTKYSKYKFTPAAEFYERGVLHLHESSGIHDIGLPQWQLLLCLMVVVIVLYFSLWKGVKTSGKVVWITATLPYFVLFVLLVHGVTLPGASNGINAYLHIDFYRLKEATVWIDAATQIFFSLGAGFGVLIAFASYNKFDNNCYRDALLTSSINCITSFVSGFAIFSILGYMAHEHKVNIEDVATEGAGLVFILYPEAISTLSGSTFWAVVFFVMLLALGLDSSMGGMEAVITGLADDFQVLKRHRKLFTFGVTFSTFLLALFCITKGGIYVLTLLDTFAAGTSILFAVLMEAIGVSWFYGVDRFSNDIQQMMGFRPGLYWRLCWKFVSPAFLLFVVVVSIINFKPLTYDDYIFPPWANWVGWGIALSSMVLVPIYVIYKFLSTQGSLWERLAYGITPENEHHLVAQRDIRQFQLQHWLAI

[4] = system: plasma proteins; test: Vilazodone protein binding by equilibrium dialysis (Studies 1 and 2); type: in vitro ADME; settings: both sexes, human, plasma of study participants, read-out: mean percent free fraction in plasma
Protocol: In both studies, additional samples (6 mL each) were collected to determine vilazodone protein binding: in Study 1, these samples were collected in duplicate at predose hour 0 and postdose hours 6 and 12; in Study 2, the samples were collected at predose hour 0 and postdose hours 4 and 12, with an additional sample (13 mL) collected at hour 0 for the determination of albumin concentration.
The plasma concentrations of vilazodone (Studies 1 and 2) and its metabolite M17 (Study 2), vilazodone concentrations in urine (Study 1), and protein binding were determined using liquid chromatography with tandem mass spectrometry (LC/MS/MS) methodologies that have been validated for the following ranges: plasma vilazodone, 0.75 to 250 ng/mL (Study 1) and 0.5 to 250 ng/mL (Study 2); plasma M17, 0.25-125 ng/mL; urine vilazodone, 1.0-200 ng/mL; vilazodone protein binding, high range (sample compartment) 2.7-108 ng/mL, low range (buffer compartment) 0.1-5.4 ng/mL. The extent of vilazodone binding to plasma proteins was determined using equilibrium dialysis.

[5] = Study 2: single-dose pharmacokinetics in severe hepatic impairment and matched healthy controls; settings: for AUC(0-t) / AUC(0-inf) / Cmax / Tmax / half-life: both, human, po, 20 mg; for AUC(0-inf): AUC0-∞; for AUC(0-inf) / Cmax / Tmax / half-life: vilazodone 20 mg single oral dose
Protocol: The pharmacokinetics, tolerability, and safety of vilazodone were investigated in two separate trials involving participants with hepatic impairment, compared with healthy controls. An Open-label, parallel-group, single-dose pharmacokinetic studies, a single, oral dose of vilazodone (20 mg with increased hardness) was administered to participants with mild, moderate, or severe hepatic impairment or individually matched controls. Outcomes included pharmacokinetic parameters and safety (vital signs, clinical laboratory evaluations, ECG, and adverse events [AEs]). Plasma samples were analyzed using validated LC/MS/MS methods.
Data from two, open-label, parallel-group, single-dose pharmacokinetic studies investigated single-dose vilazodone (20 mg with increased hardness) in participants with hepatic impairment and normal hepatic function. The first study (Study 1) included participants with mild or moderate hepatic impairment and healthy controls. The second study (Study 2) included participants with severe hepatic impairment or healthy participants. These studies were both designed in accordance with the FDA guidance for evaluation of pharmacokinetics in the presence of hepatic impairment. The differences between the study protocols were minimal, so both methodologies are described together, with any differences noted below.
Participants were men and women, 18 to 70 years of age, with a body mass index (BMI) of 18-42 kg/m^2. Women were not pregnant or breastfeeding and agreed to utilize a medically accepted form of contraception during the study (as did men in Study 2). In Study 2, participants were also required to be non-smokers or light smokers (fewer than 10 cigarettes per day; there was no stipulation in Study 1) and to have a sitting pulse rate of 50-100 bpm at screening and prior to dosing on Day 1. […] Each healthy control was matched with a hepatically impaired participant. Control participants in the Study 1 were matched with a hepatically impaired individual according to age (±10 years), sex, and BMI (±15%). Control participants in Study 2 were matched with a hepatically impaired individual according to age (±5 years), sex, and weight (±10%).
Participants with hepatic dysfunction were classified according to the Child-Pugh hepatic dysfunction staging system as having mild (5-6 points) or moderate (7-9 points) hepatic impairment (Study 1), or severe impairment (10-15 points; Study 2). Participants with severe impairment also had chronic liver disease and/or compensated cirrhosis, as evidenced by liver biopsy, computerized tomography or ultrasonic evidence of hepatic fibrosis, clinical evidence of chronic liver disease, or a colloid shift on a liver-spleen scan. Exclusion criteria included the following: a clinical diagnosis or history of depression; treatment with antidepressants, anxiolytics, psychoactive medications (including herbal supplements), other serotonergic drugs, or drugs that inhibit CYP3A4 (eg, ketoconazole, diltiazem, macrolide antibiotics); a hypersensitivity to vilazodone or other SSRIs or 5-HT agonists; history or evidence of alcohol or substance abuse, cancer, human immunodeficiency virus, hepatitis B (Study 1 and healthy controls, both studies) hepatitis C (healthy controls, both studies), or other clinically significant illnesses or medical conditions. Participants with severe hepatic impairment were excluded if they had bleeding diathesis, advanced ascites requiring large-volume paracentesis within 1 week of dosing, esophageal bleeding within the previous 8 weeks, history of portosystemic shunt or hepatic transplant, or evidence of hepatic encephalopathy, hepatorenal syndrome, or other evidence of rapid hepatic deterioration.
Participants were not allowed to have previously taken vilazodone or participated in any clinical investigation requiring repeated blood draws within 60 days of dosing, or donated blood or plasma within 60 or 30 days, respectively.

[6] = In vitro dissolution, USP apparatus 2 (paddle); type: physicochemical; settings: at first 30 minutes; FIGS. 4-6
Protocol: In the dissolution testing guideline for immediate release profiles, material dissolves over a period of time, and its dissolution is measured at given intervals during this period. A minimum of three time points is recommended and generally cover early, middle and late stages of the dissolution profile. […] In presence of minor changes to the drug dosage forms, a single point dissolution test may be adequate to ensure product dosing compliance. For major changes, a dissolution profile comparison performed under identical conditions for the product before and after the changes(s) is recommended. […] The term “similarity factor” or F2 factor as used herein refers to one way of comparing dissolution profiles of two different products. (Multisource Pharmaceutical Products: Guidelines on Registration Requirements to establish Interchangeability, Quality Assurance and Safety: Medicines, Essential Drugs and Medicines Policy, World Health Organization, 1211 Geneva 27, Switzerland). This model independent mathematical approach compares the dissolution profile of the two products: test and reference (or two strengths, or pre- and post-approved products from the same manufacturer) and calculates percent (%) difference between two curves at each time point and measures the relative error between two curves. Tests are recommended to be performed under the same test conditions. […]

[7] = Severe impairment/control, 20 mg single dose, participants who vomited excluded
[8] = plasma, Control matched to Severe Impairment n = 8
[9] = plasma, Severe Impairment n = 4 (who did not vomit)

Chain of CYP3A4 (P08684 whole entry): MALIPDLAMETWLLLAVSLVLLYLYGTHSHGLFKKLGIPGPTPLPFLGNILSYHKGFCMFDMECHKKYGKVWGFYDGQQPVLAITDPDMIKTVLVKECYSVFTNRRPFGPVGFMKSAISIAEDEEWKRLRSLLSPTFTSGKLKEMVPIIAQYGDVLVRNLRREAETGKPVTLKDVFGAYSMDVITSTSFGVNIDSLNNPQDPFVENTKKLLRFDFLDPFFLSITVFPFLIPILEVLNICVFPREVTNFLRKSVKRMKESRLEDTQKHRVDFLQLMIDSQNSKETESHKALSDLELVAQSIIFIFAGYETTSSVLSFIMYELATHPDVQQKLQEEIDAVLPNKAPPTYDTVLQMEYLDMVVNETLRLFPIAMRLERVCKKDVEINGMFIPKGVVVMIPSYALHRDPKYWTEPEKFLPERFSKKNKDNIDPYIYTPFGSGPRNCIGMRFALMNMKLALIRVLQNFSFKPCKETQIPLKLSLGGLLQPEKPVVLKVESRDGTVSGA
Chain of dopamine reuptake site (Q01959 whole entry): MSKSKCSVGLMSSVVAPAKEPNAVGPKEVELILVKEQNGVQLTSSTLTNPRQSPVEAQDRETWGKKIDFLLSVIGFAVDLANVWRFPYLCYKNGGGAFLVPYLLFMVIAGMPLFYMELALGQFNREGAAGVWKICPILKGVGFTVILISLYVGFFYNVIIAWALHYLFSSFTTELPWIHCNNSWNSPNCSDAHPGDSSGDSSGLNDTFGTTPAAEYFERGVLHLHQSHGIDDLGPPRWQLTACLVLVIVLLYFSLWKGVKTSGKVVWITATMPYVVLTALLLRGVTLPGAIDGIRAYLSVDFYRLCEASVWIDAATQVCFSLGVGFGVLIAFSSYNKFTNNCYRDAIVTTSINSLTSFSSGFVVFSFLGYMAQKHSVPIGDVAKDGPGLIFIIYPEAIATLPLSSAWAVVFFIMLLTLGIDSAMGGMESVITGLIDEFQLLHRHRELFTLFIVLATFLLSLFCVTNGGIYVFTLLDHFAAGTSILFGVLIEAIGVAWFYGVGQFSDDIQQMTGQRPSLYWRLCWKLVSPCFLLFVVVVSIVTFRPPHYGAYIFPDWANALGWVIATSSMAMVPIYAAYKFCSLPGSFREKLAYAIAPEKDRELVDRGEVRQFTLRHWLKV

Cl.N#Cc1ccc2[nH]cc(CCCCN3CCN(c4ccc5oc(C(N)=O)cc5c4)CC3)c2c1 [Vilazodone, 1-[4-(5-cyanoindol-3-yl)butyl]-4-(2-carbamoyl-benzofuran-5-yl)-piperazine hydrochloride]
binding to dopamine reuptake site [1]: not
inhibitor or inducer of CYP3A4 [2]: not an inhibitor or inducer
binding to norepinephrine reuptake site [3]: not
fraction unbound ([4]; all participants with severe hepatic impairment): 0.0224
fraction unbound ([4]; healthy controls): 0.01 to 0.014
fraction unbound ([4]; participants with mild or moderate hepatic impairment): 0.016
fraction unbound ([4]; participants with severe hepatic impairment who did not vomit): 0.0213
AUC0-t, Ratio of Geometric Means (%) [5, 7]: 96.9%
AUC0-∞, Ratio of Geometric Means (%) [5, 7]: 95.8%
Cmax, Ratio of Geometric Means (%) [5, 7]: 75.2%
AUC(0-t) ([5]; in vivo): 642 ± 96.9 ng·h/mL
AUC(0-t) ([5]; plasma): 694 ± 262 ng·h/mL
AUC(0-inf) [5, 8]: 731 ± 267 ng·h/mL
AUC(0-inf) [5, 9]: 670 ± 94.8 ng·h/mL
Cmax [5, 8]: 35 ± 11.8 ng/mL
Cmax [5, 9]: 25.3 ± 3.8 ng/mL
Tmax ([5]; plasma, Tmax (mean), Control matched to Severe Impairment n = 8): 4.2 ± 1.3 h
Tmax ([5]; plasma, Tmax (mean), Severe Impairment n = 4 (who did not vomit)): 4.8 ± 2.2 h
Tmax ([5]; plasma, Tmax, Median, Control matched to Severe Impairment n = 8): 4.5 h
Tmax ([5]; plasma, Tmax, Median, Severe Impairment n = 4 (who did not vomit)): 4 h
half-life ([5]; plasma, t1/2, Control matched to Severe Impairment n = 8): 30.1 ± 13.8 h
half-life ([5]; plasma, t1/2, Severe Impairment n = 4 (who did not vomit)): 29.8 ± 4.8 h
mean Cmax lower than in healthy controls ([5]; severe hepatic impairment vs healthy controls, 20 mg single dose): approximately 25%
Mean unbound drug clearance (CLu/F) lower vs matched controls ([5]; severe impairment group): 33%
vilazodone HCl released [6]: 80%
